Tests used:
[1] = test system: Zygosaccharomyces bailii (yeast); assay: Challenge test with yeasts in MOS / MAS; format: cell-based; conditions: for Week 0 (Log cfu/g) / Week 1 (Log cfu/g) / Week 2 (Log cfu/g) / Week 3 (Log cfu/g) / Week 4 (Log cfu/g): 0.10%
Experimental: Target microorganisms used for the challenge tests (CT) were Zygosaccharomyces bailii (yeast), Aspergillus niger (mould), Penicillium nalgiovense (mould) and Eurotium amstelodami (mould).
Stock culture of the yeast was revived on MEB. The inoculated broths were incubated at 30° C. for 48-72 hours with constant swirling. The broth cultures were further sub-cultured in the MEB and incubated similarly at 30° C. for 48-72 hours with constant swirling. The final broth cultures were then analyzed for total yeast counts on MEA plate as well as for microbial contamination on PCA by spread plat 0.1-0.5 ml of suspension onto the agar plates respectively. Before the challenge test is initiated, the broth inoculated with yeast was diluted aseptically with sterile Tryptone Salt 0.1% to the desired level such that the inoculation level in the product would be 2-3 log of colony-forming-units (cfu) of yeast per gram (Cfu: colony forming units).
(§1) Challenge Test with yeasts was according to the following steps: 1) Add 100 g of MOS into a 250 ml sterile Schott bottle with screw-cap cover; 2) Add 0.1 ml to 2 ml of yeast (Z. bailii) inoculum to meet the target inoculum of 10^2 to 10^3 cfu/g of MOS into the 100 g MOS and shake to mix well; 3) Pour 35 g of the inoculated MOS into two 150 ml sterile disposable polypropylene container with screw-cap cover; 4) Pipette 1 g of inoculated MOS into 9 ml sterile Tryptone Salt 0.1% diluent and vortex. Perform this in duplicate; 5) Plate 0.1 ml to 0.5 ml of inoculated Tryptone Salt 0.1% onto MEA at appropriate dilutions by Spread Plate Method. Incubate the plates at 30° C. for 3 days for the enumeration of the initial yeast count; 6) Incubate the inoculated MOS in 150 ml containers at 30° C. for a week; 7) After one week, repeat steps 4 to 6 for the weekly monitoring of Z. bailii growth behavior in MOS. Perform the monitoring for a period of 4 weeks; 8) The control was prepared by repeating steps 3 to 7 without using any inoculum.
(§2) The method for producing MAS was the same as for the MOS production in experiment 4. The preparation of the microorganism cultures as well as the challenge tests were identical to the ones described in experiment 4 as well.

[2] = Un-inoculated control samples of the challenge tests in MOS / MAS; conditions: 0.10%
Experimental: Challenge Test with moulds was according to the following steps: 1) Add 100 g of MOS into a 250 ml sterile Schott bottle with screw-cap cover; 2) Add 0.1 to 2 ml of mould (A. niger/P. nalgiovence/E. amstelodami) inoculum to meet the target inoculum of 10^2-10^3 cfu/g of MOS into the 100 g MOS and shake to mix well; 3) Pour 35 g of the inoculated MOS into a petri dish. Perform this in duplicate; 4) Pipette 1 g of inoculated MOS from the Schott bottle into 9 ml sterile Tryptone Salt 0.1% diluents and vortex. Perform this in duplicate; 5) Plate 0.1-0.5 ml of inoculated Tryptone Salt 0.1% onto DG18 plates at appropriate dilutions by Spread Plate Method. Incubate the agar plates at 25° C. for 5 days to enumerate the initial mould count; 6) Incubate the inoculated MOS in petri dishes at 30° C. for a week. Monitor for mould growth by visual observation after one week. Perform this mould growth monitoring for a period of 4 weeks; 7) The control was prepared by repeating steps 3 to 6 without using any inoculum. The control was plated onto PCA with Cycloheximide plates.
as §1, §2

[3] = MAGGI Abalone Sauce, age 0 month
[4] = MAGGI Abalone Sauce, age 1 month
[5] = MAGGI Abalone Sauce, age 3 month
[6] = MAGGI Abalone Sauce, age 6 month
[7] = MAGGI Abalone Sauce, age 10 month
[8] = MAGGI Abalone Sauce, age 12 month
[9] = MAGGI Oyster Sauce, age 0 month

In the case of `C/C=C/C=C/C(=O)[O-].[K+]` [KS, potassium sorbate], the “Week 0 (Log cfu/g)” value [1, 3] is reported as less than 1.00 Log cfu/g, the “Week 1 (Log cfu/g)” value [1, 3] is reported as less than 1.00 Log cfu/g and the “Week 2 (Log cfu/g)” value [1, 3] is reported as less than 1.00 Log cfu/g. The “Week 3 (Log cfu/g)” value [1, 3] was less than 1.00 Log cfu/g, the “Week 4 (Log cfu/g)” value [1, 3] was less than 1.00 Log cfu/g and the “Week 0 (Log cfu/g)” value [1, 4] was less than 1.00 Log cfu/g. For the same molecule, the “Week 1 (Log cfu/g)” value [1, 4] was less than 1.63 Log cfu/g, the “Week 2 (Log cfu/g)” value [1, 4] was less than 1.00 Log cfu/g and the “Week 3 (Log cfu/g)” value [1, 4] was less than 1.00 Log cfu/g. The “Week 4 (Log cfu/g)” value [1, 4] was less than 1.00 Log cfu/g, the “Week 0 (Log cfu/g)” value [1, 5] was 2.96 Log cfu/g and the “Week 1 (Log cfu/g)” value [1, 5] was less than 1.00 Log cfu/g. The “Week 2 (Log cfu/g)” value [1, 5] was less than 1.00 Log cfu/g, the “Week 3 (Log cfu/g)” value [1, 5] was less than 1.00 Log cfu/g and the “Week 4 (Log cfu/g)” value [1, 5] was less than 1.00 Log cfu/g. The “Week 0 (Log cfu/g)” value [1, 6] was 2.13 Log cfu/g, the “Week 1 (Log cfu/g)” value [1, 6] was less than 1.00 Log cfu/g and the “Week 2 (Log cfu/g)” value [1, 6] was less than 1.00 Log cfu/g. For the same molecule, the “Week 3 (Log cfu/g)” value [1, 6] was less than 1.00 Log cfu/g, the “Week 4 (Log cfu/g)” value [1, 6] was less than 1.00 Log cfu/g and the “Week 0 (Log cfu/g)” value [1, 7] was 4.43 Log cfu/g. For the same molecule, the “Week 1 (Log cfu/g)” value [1, 7] was less than 2.00 Log cfu/g, the “Week 2 (Log cfu/g)” value [1, 7] was less than 1.00 Log cfu/g and the “Week 3 (Log cfu/g)” value [1, 7] was less than 1.00 Log cfu/g. For the same molecule, the “Week 4 (Log cfu/g)” value [1, 7] was less than 1.00 Log cfu/g, the “Week 0 (Log cfu/g)” value [1, 8] was 2.84 Log cfu/g and the “Week 1 (Log cfu/g)” value [1, 8] was 1.72 Log cfu/g. The “Week 2 (Log cfu/g)” value [1, 8] was less than 1 Log cfu/g, the “Week 3 (Log cfu/g)” value [1, 8] was less than 1 Log cfu/g and the “Week 4 (Log cfu/g)” value [1, 8] was less than 1 Log cfu/g. For the same molecule, the yeast growth ([1]; MAGGI Abalone Sauce, up to 12 months, KS 0.10%, clove leaf oil 0.06 wt % and 0.15 wt %) was “not detected”, the “Week 0 (Log cfu/g)” value [1, 9] was 3.544 Log cfu/g and the “Week 1 (Log cfu/g)” value [1, 9] was less than 1.00 Log cfu/g. For the same molecule, the “Week 2 (Log cfu/g)” value [1, 9] was less than 1.00 Log cfu/g, the “Week 3 (Log cfu/g)” value [1, 9] was less than 1.00 Log cfu/g and the “Week 4 (Log cfu/g)” value [1, 9] was less than 1.00 Log cfu/g. The “Week 0 (Log cfu/g)” value [2, 3] was less than 1.00 Log cfu/g, the “Week 1 (Log cfu/g)” value [2, 3] was less than 1.00 Log cfu/g and the “Week 2 (Log cfu/g)” value [2, 3] was less than 1.00 Log cfu/g. The “Week 3 (Log cfu/g)” value [2, 3] was less than 1.00 Log cfu/g, the “Week 4 (Log cfu/g)” value [2, 3] was less than 1.00 Log cfu/g and the “Week 0 (Log cfu/g)” value [2, 4] was less than 1.00 Log cfu/g. The “Week 1 (Log cfu/g)” value [2, 4] was less than 1.00 Log cfu/g, the “Week 2 (Log cfu/g)” value [2, 4] was less than 1.00 Log cfu/g and the “Week 3 (Log cfu/g)” value [2, 4] was less than 1.00 Log cfu/g. For the same molecule, the “Week 4 (Log cfu/g)” value [2, 4] was less than 1.00 Log cfu/g, the “Week 0 (Log cfu/g)” value [2, 5] was less than 1.00 Log cfu/g and the “Week 1 (Log cfu/g)” value [2, 5] was less than 1.00 Log cfu/g. The “Week 2 (Log cfu/g)” value [2, 5] was less than 1.00 Log cfu/g, the “Week 3 (Log cfu/g)” value [2, 5] was less than 1.00 Log cfu/g and the “Week 4 (Log cfu/g)” value [2, 5] was less than 1.00 Log cfu/g. For the same molecule, the “Week 0 (Log cfu/g)” value [2, 6] was less than 1.00 Log cfu/g, the “Week 1 (Log cfu/g)” value [2, 6] was less than 1.00 Log cfu/g and the “Week 2 (Log cfu/g)” value [2, 6] was less than 1.00 Log cfu/g. For the same molecule, the “Week 3 (Log cfu/g)” value [2, 6] was less than 1.00 Log cfu/g, the “Week 4 (Log cfu/g)” value [2, 6] was less than 1.00 Log cfu/g and the “Week 0 (Log cfu/g)” value [2, 7] was less than 1.00 Log cfu/g. The “Week 1 (Log cfu/g)” value [2, 7] was less than 1.00 Log cfu/g, the “Week 2 (Log cfu/g)” value [2, 7] was less than 1.00 Log cfu/g and the “Week 3 (Log cfu/g)” value [2, 7] was less than 1.00 Log cfu/g. For the same molecule, the “Week 4 (Log cfu/g)” value [2, 7] was less than 1.00 Log cfu/g, the “Week 0 (Log cfu/g)” value [2, 8] was less than 1.00 Log cfu/g and the “Week 1 (Log cfu/g)” value [2, 8] was less than 1.30 Log cfu/g. The “Week 2 (Log cfu/g)” value [2, 8] was less than 1.30 Log cfu/g, the “Week 3 (Log cfu/g)” value [2, 8] was less than 1.30 Log cfu/g and the “Week 4 (Log cfu/g)” value [2, 8] was less than 1.30 Log cfu/g. The “Week 0 (Log cfu/g)” value [2, 9] was less than 1.30 Log cfu/g, the “Week 1 (Log cfu/g)” value [2, 9] was less than 1.30 Log cfu/g and the “Week 2 (Log cfu/g)” value [2, 9] was less than 1.30 Log cfu/g. The “Week 3 (Log cfu/g)” value [2, 9] was less than 1.30 Log cfu/g and the “Week 4 (Log cfu/g)” value [2, 9] was less than 1.30 Log cfu/g.

Reference: patent US8859018B2, “Delivery carrier for antimicrobial essential oils” (Nestec S.A., priority 2010, dated 2014)
